Drawing on patent publication US20230310445A1, “LOX ENZYME INHIBITING METHODS AND COMPOSITIONS” (ANOVIA BIOSCIENCES, INC., priority 2020, published 2023), this text covers IC50 for 20 molecules.

The target of assay [1] is T1, Recombinant human LOXL2 (lysyl oxidase like 2) (Homo sapiens, UniProt Q9Y4K0).
T1 construct: purchased R&D systems
T1 sequence (Q9Y4K0 26-774): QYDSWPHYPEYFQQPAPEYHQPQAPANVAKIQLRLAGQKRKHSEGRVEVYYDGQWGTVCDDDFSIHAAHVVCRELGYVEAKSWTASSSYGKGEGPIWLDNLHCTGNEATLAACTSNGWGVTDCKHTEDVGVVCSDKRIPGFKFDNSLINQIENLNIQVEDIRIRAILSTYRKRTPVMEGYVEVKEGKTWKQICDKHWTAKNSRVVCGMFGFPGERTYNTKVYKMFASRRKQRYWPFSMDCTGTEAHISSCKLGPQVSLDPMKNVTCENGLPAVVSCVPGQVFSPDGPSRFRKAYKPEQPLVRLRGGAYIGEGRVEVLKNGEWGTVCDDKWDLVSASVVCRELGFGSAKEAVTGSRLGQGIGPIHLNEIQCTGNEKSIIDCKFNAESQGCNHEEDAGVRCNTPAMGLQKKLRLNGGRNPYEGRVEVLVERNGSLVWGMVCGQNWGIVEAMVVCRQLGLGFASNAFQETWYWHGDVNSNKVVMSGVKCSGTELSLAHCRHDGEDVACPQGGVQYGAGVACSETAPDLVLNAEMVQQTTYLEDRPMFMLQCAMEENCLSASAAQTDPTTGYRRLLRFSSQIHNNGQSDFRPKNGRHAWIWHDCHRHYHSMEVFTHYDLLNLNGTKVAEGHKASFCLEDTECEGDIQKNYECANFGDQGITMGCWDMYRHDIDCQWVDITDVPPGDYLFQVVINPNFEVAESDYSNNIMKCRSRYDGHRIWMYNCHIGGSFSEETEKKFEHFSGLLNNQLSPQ
The experiment in a line: LOXL2 inhibition assay (fluorometric, cadaverine/Amplex Red/HRP). It counts as biochemical. The following applies: IC50 class; recombinant human LOXL2, cadaverine substrate; read-out: Activity Range LOXL2. The gist of the method:
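Both enzymes assayed in 1.2 M urea, 50 mM sodium borate pH 8.0, 10 mM CaCl, with 30 min compound–enzyme preincubation at 37° C before cadaverine/Amplex Red/HRP addition. Fluorescence followed 60 min at 37° C; linear-slope rates, background-subtracted, as % of DMSO control, fitted by 4-parameter variable-slope curve (bottom fixed at 0).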

For assay [2], the target named is T2, Bovine lysyl oxidase (LOX) (Bos taurus, UniProt P33072).
T2 construct: from tissue; host or cells: adult bovine tendon
T2 sequence (P33072 170-418): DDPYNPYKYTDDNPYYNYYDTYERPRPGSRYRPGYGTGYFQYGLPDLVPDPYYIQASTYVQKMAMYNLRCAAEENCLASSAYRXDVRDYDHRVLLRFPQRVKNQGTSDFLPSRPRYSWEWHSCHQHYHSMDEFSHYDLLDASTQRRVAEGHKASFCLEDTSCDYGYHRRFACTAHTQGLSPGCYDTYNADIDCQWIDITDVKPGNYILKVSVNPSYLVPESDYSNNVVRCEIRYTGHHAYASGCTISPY
The experiment in a line: LOX inhibition assay (fluorometric, cadaverine/Amplex Red/HRP). It is filed as biochemical. The following applies: IC50 class; bovine tendon LOX, cadaverine substrate; read-out: Activity Range LOX. The gist of the method:
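Bovine tendon-extracted LOX was preincubated 30 min at 37 °C with compound. Cadaverine/Amplex Red/HRP was then added and fluorescence (ex530/em600) monitored for 120 min at 37 °C. Progress-curve slopes, background-subtracted against no-protein wells, were normalised to DMSO controls and fitted with a four-parameter variable-slope dose-response model.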

Bounds are passed on as bounds.

As for `NCc1ccc(S(=O)(=O)N2C[C@@H](C(=O)N3CCS(=O)(=O)CC3)C[C@@H](C3CCCCC3)C2)s1` (racemic) [Example 121, cis-(1-((5-(Aminomethyl)thiophen-2-yl)sulfonyl)-5-cyclohexylpiperidin-3-yl)(1,1-dioxidothiomorpholino)methanone 2,2,2-trifluoroacetate], the IC50 in assay [1] and in assay [2] was at most 0.5 µM throughout.

`NCc1cc(S(=O)(=O)N2C[C@@H](C(=O)N3CCS(=O)(=O)CC3)C[C@@H](c3ccccc3)C2)ccn1` (racemic) [Example 130, cis-(1-((2-(Aminomethyl)pyridin-4-yl)sulfonyl)-5-phenylpiperidin-3-yl)(1,1-dioxidothiomorpholino)methanone 2,2,2-trifluoroacetate]: the IC50 lay within 0.5 to 1 µM in assay [1] and 1 to 30 µM in assay [2].

As to `NCc1cc(S(=O)(=O)N2C[C@H](C(=O)N3CCS(=O)(=O)CC3)C[C@@H](c3ccccc3)C2)ccn1` (racemic) [Example 130T, trans-(1-((2-(Aminomethyl)pyridin-4-yl)sulfonyl)-5-phenylpiperidin-3-yl)(1,1-dioxidothiomorpholino)methanone 2,2,2-trifluoroacetate], the IC50 is at most 0.5 µM in assay [1] and 1 to 30 µM in assay [2].

Turning to `NCc1cncc(S(=O)(=O)N2C[C@@H](C(=O)N3CCOCC3)C[C@@H](c3ccccc3)C2)c1` (racemic) [Example 131, cis-(1-((5-(Aminomethyl)pyridin-3-yl)sulfonyl)-5-phenylpiperidin-3-yl)(morpholino)methanone 2,2,2-trifluoroacetate], the IC50 in assay [1] is 1 to 30 µM; in assay [2], over 30 µM.

Take `NCc1cncc(S(=O)(=O)N2C[C@@H](C(=O)N3CCS(=O)(=O)CC3)C[C@@H](c3ccccc3)C2)c1` (racemic) [Example 132, cis-(1-((5-(Aminomethyl)pyridin-3-yl)sulfonyl)-5-phenylpiperidin-3-yl)(1,1-dioxidothiomorpholino)methanone 2,2,2-trifluoroacetate]: the IC50 in assay [1] was 1 to 30 µM; in assay [2] it was over 30 µM.

Take `CN(C)C(=O)N1C[C@@H](C2CCCCC2)C[C@@H](S(=O)(=O)c2cccc(CN)c2)C1` (racemic) [Example 135, cis-3-((3-(Aminomethyl)phenyl)sulfonyl)-5-cyclohexyl-N,N-dimethylpiperidine-1-carboxamide]: the IC50 in assay [1] was at most 0.5 µM; in assay [2], over 30 µM.

For the molecule `NCc1cccc(S(=O)(=O)[C@@H]2C[C@H](C3CCCCC3)CN(C(=O)N3CCS(=O)(=O)CC3)C2)c1` (racemic) [Example 137, cis-(3-((3-(Aminomethyl)phenyl)sulfonyl)-5-cyclohexylpiperidin-1-yl)(1,1-dioxidothiomorpholino)methanone], the values for the IC50 in assay [1] and in assay [2] were at most 0.5 µM and over 30 µM, respectively.

As for `NCc1cccc(S(=O)(=O)[C@H]2C[C@H](C3CCCCC3)CN(C(=O)N3CCS(=O)(=O)CC3)C2)c1` (racemic) [Example 137T, trans-(3-((3-(Aminomethyl)phenyl)sulfonyl)-5-cyclohexylpiperidin-1-yl)(1,1-dioxidothiomorpholino)methanone], the IC50 in assay [1] was at most 0.5 µM; in assay [2] it was over 30 µM.

With `CN(C)C(=O)[C@@H]1C[C@H](S(=O)(=O)c2cccc(CN)c2)CN(C2CCCCC2)C1` (racemic) [Example 141, cis-5-((3-(Aminomethyl)phenyl)sulfonyl)-1-cyclohexyl-N,N-dimethylpiperidine-3-carboxamide], the IC50 in assay [1] was at most 0.5 µM; in assay [2] it was over 30 µM.

Turning to `CN(C)C(=O)[C@H]1C[C@H](S(=O)(=O)c2cccc(CN)c2)CN(C2CCCCC2)C1` (racemic) [Example 141T, trans-5-((3-(Aminomethyl)phenyl)sulfonyl)-1-cyclohexyl-N,N-dimethylpiperidine-3-carboxamide], the IC50 is at most 0.5 µM in assay [1] and over 30 µM in assay [2].

Consider `NCc1cccc(S(=O)(=O)[C@H]2C[C@@H](C(=O)N3CCOCC3)CN(C3CCCCC3)C2)c1` (racemic) [Example 142, cis-(5-((3-(Aminomethyl)phenyl)sulfonyl)-1-cyclohexylpiperidin-3-yl)(morpholino)methanone 2,2,2-trifluoroacetate], for which the IC50 was at most 0.5 µM in assay [1] and over 30 µM in assay [2].

As for `NCc1cccc(S(=O)(=O)[C@H]2C[C@H](C(=O)N3CCOCC3)CN(C3CCCCC3)C2)c1` (racemic) [Example 142T, trans-(5-((3-(Aminomethyl)phenyl)sulfonyl)-1-cyclohexylpiperidin-3-yl)(morpholino)methanone 2,2,2-trifluoroacetate], the IC50 in assay [1] was at most 0.5 µM; in assay [2], over 30 µM.

Take `NCc1cccc(S(=O)(=O)[C@H]2C[C@@H](C(=O)N3CCS(=O)(=O)CC3)CN(C3CCCCC3)C2)c1` (racemic) [Example 143, cis-(5-((3-(Aminomethyl)phenyl)sulfonyl)-1-cyclohexylpiperidin-3-yl)(1,1-dioxidothiomorpholino)methanone 2,2,2-trifluoroacetate]: the IC50 in assay [1] was at most 0.5 µM; in assay [2], over 30 µM.

As for `NCc1ccnc(S(=O)(=O)N2C[C@@H](C(=O)N3CCS(=O)(=O)CC3)C[C@@H](N3CCCCC3)C2)c1` (racemic) [Example 148, cis-(1′-((4-(Aminomethyl)pyridin-2-yl)sulfonyl)-[1,3′-bipiperidin]-5′-yl)(1,1-dioxidothiomorpholino)methanone 2,2,2-trifluoroacetate], the IC50 is at most 0.5 µM in assay [1] and 1 to 30 µM in assay [2].

On to `CS(=O)(=O)N1CCN(C(=O)[C@H]2C[C@@H](N3CCCCC3)CN(S(=O)(=O)c3cc(CN)ccn3)C2)CC1` (racemic) [Example 149, cis-(1′-((4-(Aminomethyl)pyridin-2-yl)sulfonyl)-[1,3′-bipiperidin]-5′-yl)(4-(methylsulfonyl)piperazin-1-yl)methanone 2,2,2-trifluoroacetate], for which the IC50 in assay [1] was 0.5 to 1 µM; in assay [2], over 30 µM.

On to `CN1CCN(C(=O)[C@H]2C[C@@H](N3CCCCC3)CN(S(=O)(=O)c3cc(CN)ccn3)C2)CC1` (racemic) [Example 150, cis-(1′-((4-(Aminomethyl)pyridin-2-yl)sulfonyl)-[1,3′-bipiperidin]-5′-yl)(4-methylpiperazin-1-yl)methanone 2,2,2-trifluoroacetate], for which the IC50 in assay [1] lay within 0.5 to 1 µM; in assay [2], 1 to 30 µM.

`NCc1ccnc(S(=O)(=O)N2C[C@@H](C(=O)N3CCOCC3)C[C@@H](N3CCOCC3)C2)c1` (racemic) [Example 155, cis-(1-((4-(Aminomethyl)pyridin-2-yl)sulfonyl)-5-morpholinopiperidin-3-yl)(morpholino)methanone 2,2,2-trifluoroacetate]: the figures for the IC50 in assay [1] and in assay [2] were 0.5 to 1 µM and 1 to 30 µM, respectively.

`NCc1ccnc(S(=O)(=O)N2C[C@H](C(=O)N3CCOCC3)C[C@H](N3CCCCC3=O)C2)c1` (racemic) [Example 186, cis-1′-((4-(Aminomethyl)pyridin-2-yl)sulfonyl)-5′-(morpholine-4-carbonyl)-[1,3′-bipiperidin]-2-one 2,2,2-trifluoroacetate]: the IC50 in assay [1] is at most 0.5 µM; in assay [2], 1 to 30 µM.

`NCc1ccnc(S(=O)(=O)N2C[C@@H](C(=O)N3CCS(=O)(=O)CC3)C[C@@H](N3CCCCC3=O)C2)c1` (racemic) [Example 187, cis-1′-((4-(Aminomethyl)pyridin-2-yl)sulfonyl)-5′-(1,1-dioxidothiomorpholine-4-carbonyl)-[1,3′-bipiperidin]-2-one 2,2,2-trifluoroacetate]: the IC50 is at most 0.5 µM in assay [1] and 1 to 30 µM in assay [2].

For `NCc1cccc(S(=O)(=O)N2C[C@@H](C(=O)N3CCOCC3)C[C@@H](C(F)(F)F)C2)c1` (relative stereo) [Example 98, cis-(1-((3-(Aminomethyl)phenyl)sulfonyl)-5-(trifluoromethyl)piperidin-3-yl)(morpholino)methanone 2,2,2-trifluoroacetate], the IC50 in assay [1] was 1 to 30 µM; in assay [2] it was over 30 µM.
